# Measured values: patent US6495133B1, “Gliocladium roseum strains useful for the control of fungal pathogens in plants” (priority 1998, dated 2002)
# Where two headings read alike, the source gives them in different places.
# How the values were obtained:
# [1] = test system: field pea; experiment: Effect of seeding dates on efficacy of seed treatment, field experiments; assay type: in vivo; on yield: unit not given here
# [2] = test system: Rhizoctonia solani; experiment: Control of rhizoctonia root rot in field pea, field experiments; assay type: in vivo
# [3] = test system: Fusarium solani; experiment: Control of fusarium root rot in field pea, field experiments; assay type: in vivo
# [4] = test system: Fusarium oxysporium; experiment: Control of fusarium wilt in field pea, field experiments; assay type: in vivo
# [5] = test system: Mycosphaerella pinodes; experiment: Control of mycosphaerella seedling blight/root rot in field pea, field experiments; assay type: in vivo
# [6] = test system: Sclerotinia sclerotiorum; experiment: Control of sclerotinia rot in field pea, field experiments; assay type: in vivo
# [7] = test system: Fusarium graminearum, Bipolaris sorokiniana, F. avenaceum, Alternaria alternata, and other Fusarium species (naturally infected seeds); assay type: in vivo
# [8] = test system: Mycosphaerella pinodes; experiment: Control of seed-borne phase of mycosphaerella blight in field pea, field experiments; assay type: in vivo; conditions: for increased emergence by / increased yield by: average of two cultivars
# [9] = test system: field pea; experiment: Comparison and compatibility of ACM941 with thiram fungicide, field pea, field experiments; assay type: in vivo
# [10] = test system: Fusarium oxysporum; experiment: Control of fusarium wilt in field pea, growth room experiments; conditions: Field pea (cv. Radley)
# Procedure: (§1) In growth room experiments, seeds were planted in wood planting flats (35.5×47.0×9.0 cm) containing soil mixture of 2:1:1 of soil, perlite and peat moss. The soil mixture was pasteurized and mixed at about 2% v/v with artificially infested vermiculite that was moistened with 0.4% malt extract, autoclaved, inoculated with B. solani, and incubated at 20° C. for 7 days prior to the planting. […] For each treatment 100 seeds were planted in each of the 4-replicate flats. The planted flats were placed in a growth room maintained at 20° C. and with a 14-h photoperiod at 350 mol.m^−2.s^−1 light intensity by fluorescent and incandescent lamps. All experiments were arranged in a completely randomized block design. Emergence was counted 7 days after planting and other parameters were assessed after digging out plants 14 to 16 days after planting. Disease severity was rated on a scale of 0 (no visible lesions on lower stem and roots, seedling is well developed) to 9 (death of plant, the seedling died back quickly after emergence).
# [11] = test system: Fusarium solani; experiment: Control of fusarium root rot in field pea, growth room experiments; conditions: Field pea (cv. Radley)
# Procedure: as §1
# [12] = Optimum seeding, 1995, AC Tamor
# [13] = Optimum seeding, 1996, AC Tamor
# [14] = barley, average of the two cultivars
# [15] = Healthy-looking seed (HL), 1995, AC Tamor
# [16] = Healthy-looking seed (HL), 1995, Radley
# [17] = Healthy-looking seed (HL), 1996, AC Tamor
# [18] = Healthy-looking seed (HL), 1996, Radley
# [19] = Visibly poor seed (VP), 1995, AC Tamor
# [20] = Visibly poor seed (VP), 1995, Radley
# [21] = Visibly poor seed (VP), 1996, AC Tamor
# [22] = Visibly poor seed (VP), 1996, Radley
# [23] = Lacombe site, average of two cultivars and two years
# [24] = Morden site, average of two cultivars and two years
smiles,measurement,setting,value
"CN(C)C(=S)SSC(=S)N(C)C [Thiram, thiram]",Emergence,"[1]; Early seeding, 1995, AC Tamor",66.7 a
same,Yield,"[1]; Early seeding, 1995, AC Tamor",4934 a
same,Emergence,"[1]; Early seeding, 1995, Radley",72.4 a
same,Yield,"[1]; Early seeding, 1995, Radley",4566 a
same,Emergence,"[1]; Early seeding, 1996, AC Tamor",81.6 a
same,Yield,"[1]; Early seeding, 1996, AC Tamor",2069 b
same,Emergence,"[1]; Early seeding, 1996, Radley",79.5 a
same,Yield,"[1]; Early seeding, 1996, Radley",1295 a
same,Emergence,"[1]; Late seeding, 1995, AC Tamor",35.8 b
same,Yield,"[1]; Late seeding, 1995, AC Tamor",2454 a
same,Emergence,"[1]; Late seeding, 1995, Radley",55.0 a
same,Yield,"[1]; Late seeding, 1995, Radley",3235 a
same,Emergence,"[1]; Late seeding, 1996, AC Tamor",87.2 a
same,Yield,"[1]; Late seeding, 1996, AC Tamor",2857 a
same,Emergence,"[1]; Late seeding, 1996, Radley",84.7 a
same,Yield,"[1]; Late seeding, 1996, Radley",1706 a
same,Emergence,[1]; [12],62.8 a
same,Yield,[1]; [12],3855 a
same,Emergence,"[1]; Optimum seeding, 1995, Radley",81.3 a
same,Yield,"[1]; Optimum seeding, 1995, Radley",2901 a
same,Emergence,[1]; [13],75.5 a
same,Yield,[1]; [13],3152 a
same,Emergence,"[1]; Optimum seeding, 1996, Radley",84.7 a
same,Yield,"[1]; Optimum seeding, 1996, Radley",1580 a
same,Emergence,"[2]; 1996, AC Tamor",45.5 a
same,Yield,"[2]; 1996, AC Tamor",2497 a
same,Emergence,"[2]; 1996, Radley",47.4 a
same,Yield,"[2]; 1996, Radley",1589 a
same,increased emergence by,"[2]; 1996, average of two varieties",2%
same,reduced yield by,"[2]; 1996, average of two varieties",12.5%
same,effect on emergence,[2]; 1997,increased emergence significantly
same,effect on yield,[2]; 1997,did not increase the yield
same,Emergence,"[2]; 1997, AC Tamor",76.0 a
same,Yield,"[2]; 1997, AC Tamor",5367 a
same,Emergence,"[2]; 1997, Radley",58.6 b
same,Yield,"[2]; 1997, Radley",4666 a
same,Emergence,"[3]; 1996, AC Tamor",76.1 a
same,Yield,"[3]; 1996, AC Tamor",5374 a
same,Emergence,"[3]; 1996, Radley",81.4 a
same,Yield,"[3]; 1996, Radley",3674 a
same,Emergence,"[3]; 1997, AC Tamor",66.2 a
same,Yield,"[3]; 1997, AC Tamor",5600 a
same,Emergence,"[3]; 1997, Radley",65.7 b
same,Yield,"[3]; 1997, Radley",3379 a
same,Emergence,"[4]; 1996, AC Tamor",78.3 a
same,Yield,"[4]; 1996, AC Tamor",5203 a
same,Emergence,"[4]; 1996, Radley",85.9 ab
same,Yield,"[4]; 1996, Radley",2442 a
same,Emergence,"[4]; 1997, AC Tamor",84.0 a
same,Yield,"[4]; 1997, AC Tamor",6625 a
same,Emergence,"[4]; 1997, Radley",63.8 ab
same,Yield,"[4]; 1997, Radley",5037 b
same,Emergence,"[5]; 1996, AC Tamor",76.3 a
same,Yield,"[5]; 1996, AC Tamor",2140 ab
same,Emergence,"[5]; 1996, Radley",84.5 a
same,Yield,"[5]; 1996, Radley",1623 a
same,Emergence,"[5]; 1997, AC Tamor",80.0 a
same,Yield,"[5]; 1997, AC Tamor",5645 a
same,Emergence,"[5]; 1997, Radley",80.2 a
same,Yield,"[5]; 1997, Radley",3328 a
same,Emergence,"[6]; 1996, AC Tamor",41.8 a
same,Yield,"[6]; 1996, AC Tamor",4327 a
same,Emergence,"[6]; 1996, Radley",48.9 a
same,Yield,"[6]; 1996, Radley",2598 a
same,Emergence,"[6]; 1997, AC Tamor",49.7 a
same,Yield,"[6]; 1997, AC Tamor",5402 b
same,Emergence,"[6]; 1997, Radley",50.5 a
same,Yield,"[6]; 1997, Radley",5049 a
same,Dry wt.,"[7]; Barley, Argyle",0.32 a g/plant
same,Emergence,"[7]; Barley, Argyle",93.9 a %
same,Fresh wt.,"[7]; Barley, Argyle",1.24 a g/plant
same,Root rot incidence,"[7]; Barley, Argyle",10.8 b %
same,Root rot severity,"[7]; Barley, Argyle",0.5 b 0-9
same,Dry wt.,"[7]; Barley, Manley",0.22 a g/plant
same,Emergence,"[7]; Barley, Manley",84.3 a %
same,Fresh wt.,"[7]; Barley, Manley",1.04 a g/plant
same,Root rot incidence,"[7]; Barley, Manley",77.8 a %
same,Root rot severity,"[7]; Barley, Manley",4.2 ab 0-9
same,Dry wt.,"[7]; Wheat, Katepwa",0.23 a g/plant
same,Emergence,"[7]; Wheat, Katepwa",70.7 a %
same,Fresh wt.,"[7]; Wheat, Katepwa",0.96 a g/plant
same,Root rot incidence,"[7]; Wheat, Katepwa",12.5 ab %
same,Root rot severity,"[7]; Wheat, Katepwa",0.7 ab 0-9
same,Dry wt.,"[7]; Wheat, Plenty",0.16 a g/plant
same,Emergence,"[7]; Wheat, Plenty",88.4 a %
same,Fresh wt.,"[7]; Wheat, Plenty",0.79 a g/plant
same,Root rot incidence,"[7]; Wheat, Plenty",10.1 b %
same,Root rot severity,"[7]; Wheat, Plenty",0.6 b 0-9
same,Dry wt.,"[7]; Wheat, Sceptre",0.14 a g/plant
same,Emergence,"[7]; Wheat, Sceptre",52.4 a %
same,Fresh wt.,"[7]; Wheat, Sceptre",0.65 a g/plant
same,Root rot incidence,"[7]; Wheat, Sceptre",24.7 b %
same,Root rot severity,"[7]; Wheat, Sceptre",1.1 b 0-9
same,reduced root rot incidence by,[7]; [14],31%
same,reduced root rot severity by,[7]; [14],38%
same,increased emergence by,"[8]; HL seeds, 1995",108%
same,increased yield by,"[8]; HL seeds, 1995",106%
same,decreased yield by,"[8]; HL seeds, 1996",6%
same,increased emergence by,"[8]; HL seeds, 1996",38%
same,Emergence,[8]; [15],75.9 a
same,Yield,[8]; [15],2892 a
same,Emergence,[8]; [16],91.0 a
same,Yield,[8]; [16],459 a
same,Emergence,[8]; [17],77.9 a
same,Yield,[8]; [17],7381 a
same,Emergence,[8]; [18],89.1 a
same,Yield,[8]; [18],3114 b
same,increased emergence by,"[8]; VP seeds, 1995",293%
same,increased yield by,"[8]; VP seeds, 1995",148%
same,increased emergence by,"[8]; VP seeds, 1996",55%
same,increased yield by,"[8]; VP seeds, 1996",4%
same,Emergence,[8]; [19],51.0 a
same,Yield,[8]; [19],260 a
same,Emergence,[8]; [20],29.1 a
same,Yield,[8]; [20],643 a
same,Emergence,[8]; [21],49.5 a
same,Yield,[8]; [21],7228 a
same,Emergence,[8]; [22],57.5 a
same,Yield,[8]; [22],4410 a
same,increased emergence by,[9]; [23],4%
same,reduced yield by,[9]; [23],4%
same,Emergence,"[9]; Lacombe, Alberta, 1996, Grande",87.2 a
same,Yield,"[9]; Lacombe, Alberta, 1996, Grande",8729 a
same,Emergence,"[9]; Lacombe, Alberta, 1996, Radley",84.0 a
same,Yield,"[9]; Lacombe, Alberta, 1996, Radley",5782 a
same,Emergence,"[9]; Lacombe, Alberta, 1997, Grande",67.0 b
same,Yield,"[9]; Lacombe, Alberta, 1997, Grande",6507 b
same,Emergence,"[9]; Lacombe, Alberta, 1997, Radley",87.3 a
same,Yield,"[9]; Lacombe, Alberta, 1997, Radley",4300 a
same,increased emergence by,[9]; [24],38%
same,increased yield by,[9]; [24],29%
same,Emergence,"[9]; Morden, Manitoba, 1996, Grande",64.9 a
same,Yield,"[9]; Morden, Manitoba, 1996, Grande",4541 a
same,Emergence,"[9]; Morden, Manitoba, 1996, Radley",74.1 a
same,Yield,"[9]; Morden, Manitoba, 1996, Radley",3286 a
same,Emergence,"[9]; Morden, Manitoba, 1997, Grande",65.0 a
same,Yield,"[9]; Morden, Manitoba, 1997, Grande",1878 a
same,Emergence,"[9]; Morden, Manitoba, 1997, Radley",79.1 a
same,Yield,"[9]; Morden, Manitoba, 1997, Radley",1064 c
same,increased yield by,"[9]; average of the four station years, two sites",12%
same,Dry wt.,[10],0.34 a g/plant
same,Emergence,[10],86.3 a %
same,Fresh wt.,[10],3.1 a g/plant
same,Root rot severity,[10],1.3 a 0-9
same,Dry wt.,[11],0.27 a g/plant
same,Emergence,[11],57.5 a %
same,Fresh wt.,[11],2.7 a g/plant
same,Root rot severity,[11],3.3 ab 0-9
